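Values below derive from 48-hour exposures of cells grown in 96-well plates, with endpoints linearly interpolated between the two concentrations bracketing the appropriate inhibition level. GI50 marks 50% less growth.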 Activity calls are given as the source filed them. Rule as the data show it: active = GI50 up to about 1.1 µM and inactive = higher.
Experiments:
Assay in all cases: NCI tumour cell line growth inhibition, 48 h
SF-539 = test system: SF-539
TK-10 = test system: TK-10
HT-29 = test system: HT-29
COLO 205 = test system: COLO 205
M14 = test system: M14
HOP-62 = test system: HOP-62
SNB-19 = test system: SNB-19
MOLT-4 = test system: MOLT-4
OVCAR-4 = test system: OVCAR-4
Malme-3M = test system: Malme-3M
DU-145 = test system: DU-145
RPMI-8226 = test system: RPMI-8226
SR = test system: SR
OVCAR-5 = test system: OVCAR-5
LOX IMVI = test system: LOX IMVI
UO-31 = test system: UO-31
RXF 393 = test system: RXF 393
SNB-75 = test system: SNB-75
Hs-578T = test system: Hs-578T
HOP-92 = test system: HOP-92
MCF7 = test system: MCF7
UACC-62 = test system: UACC-62
MDA-N = test system: MDA-N
NCI/ADR-RES = test system: NCI/ADR-RES
SK-MEL-28 = test system: SK-MEL-28
OVCAR-3 = test system: OVCAR-3
KM12 = test system: KM12
786-0 = test system: 786-0
NCI-H522 = test system: NCI-H522
CCRF-CEM = test system: CCRF-CEM
SN12C = test system: SN12C
SF-295 = test system: SF-295
HCT-15 = test system: HCT-15
K562 = test system: K562
PC-3 = test system: PC-3
SK-MEL-5 = test system: SK-MEL-5
MDA-MB-435 = test system: MDA-MB-435
NCI-H460 = test system: NCI-H460
SF-268 = test system: SF-268
CAKI-1 = test system: CAKI-1
UACC-257 = test system: UACC-257
EKVX = test system: EKVX
IGROV-1 = test system: IGROV-1
HCC 2998 = test system: HCC 2998
NCI-H226 = test system: NCI-H226
U-251 = test system: U-251
NCI-H23 = test system: NCI-H23
A498 = test system: A498
MDA-MB-231 = test system: MDA-MB-231
OVCAR-8 = test system: OVCAR-8
HCT-116 = test system: HCT-116
HL-60 = test system: HL-60
A549 = test system: A549
ACHN = test system: ACHN
T47D = test system: T47D
BT-549 = test system: BT-549
SK-OV-3 = test system: SK-OV-3
SK-MEL-2 = test system: SK-MEL-2
SW-620 = test system: SW-620

In the case of `CC(=O)NNC1=NN(C(C)=O)C2(S1)C(=O)Nc1ccc(C)cc12` (stereo not drawn), the GI50 (SF-539) is reported as > 100 µM (inactive), the GI50 (TK-10) is reported as 38.5 µM (inactive) and the GI50 (HT-29) is reported as > 100 µM (inactive). The GI50 (COLO 205) was > 100 µM (inactive), the GI50 (M14) was > 100 µM (inactive) and the GI50 (HOP-62) was 35.3 µM (inactive). The GI50 (SNB-19) was 52.5 µM (inactive), the GI50 (MOLT-4) was > 100 µM (inactive) and the GI50 (OVCAR-4) was 88.1 µM (inactive). For the same compound, the GI50 (Malme-3M) was 49.7 µM (inactive), the GI50 (DU-145) was > 100 µM (inactive) and the GI50 (RPMI-8226) was 34.8 µM (inactive). For the same compound, the GI50 (SR) was 55.5 µM (inactive), the GI50 (OVCAR-5) was > 100 µM (inactive) and the GI50 (LOX IMVI) was > 100 µM (inactive). The GI50 (UO-31) was 32.4 µM (inactive), the GI50 (RXF 393) was 44.9 µM (inactive) and the GI50 (SNB-75) was 45.7 µM (inactive). For the same compound, the GI50 (Hs-578T) was 26.4 µM (inactive), the GI50 (HOP-92) was 29 µM (inactive) and the GI50 (MCF7) was 58.7 µM (inactive). For the same compound, the GI50 (UACC-62) was 39.4 µM (inactive), the GI50 (MDA-N) was > 100 µM (inactive) and the GI50 (NCI/ADR-RES) was > 100 µM (inactive). For the same compound, the GI50 (SK-MEL-28) was 78.3 µM (inactive), the GI50 (OVCAR-3) was > 100 µM (inactive) and the GI50 (KM12) was 57.7 µM (inactive). The GI50 (786-0) was 84.1 µM (inactive), the GI50 (NCI-H522) was 42 µM (inactive) and the GI50 (CCRF-CEM) was 48.4 µM (inactive). For the same compound, the GI50 (SN12C) was > 100 µM (inactive), the GI50 (SF-295) was 97.9 µM (inactive) and the GI50 (HCT-15) was 50 µM. The GI50 (K562) was 48.3 µM (inactive), the GI50 (PC-3) was 67.5 µM (inactive) and the GI50 (SK-MEL-5) was 68.5 µM (inactive). For the same compound, the GI50 (MDA-MB-435) was > 100 µM (inactive), the GI50 (NCI-H460) was 67 µM (inactive) and the GI50 (SF-268) was > 100 µM (inactive). For the same compound, the GI50 (CAKI-1) was 73.6 µM (inactive), the GI50 (UACC-257) was > 100 µM (inactive) and the GI50 (EKVX) was 78.9 µM (inactive). The GI50 (IGROV-1) was 66.5 µM (inactive), the GI50 (HCC 2998) was 47.1 µM (inactive) and the GI50 (NCI-H226) was > 100 µM (inactive). For the same compound, the GI50 (U-251) was 41.7 µM (inactive), the GI50 (NCI-H23) was > 100 µM (inactive) and the GI50 (A498) was 38.1 µM (inactive). The GI50 (MDA-MB-231) was 80.2 µM (inactive), the GI50 (OVCAR-8) was 83.6 µM (inactive) and the GI50 (HCT-116) was > 100 µM (inactive). For the same compound, the GI50 (HL-60) was 38.3 µM (inactive), the GI50 (A549) was 94 µM (inactive) and the GI50 (ACHN) was 34.2 µM (inactive). The GI50 (T47D) was 23 µM (inactive) and the GI50 (BT-549) was 47.8 µM (inactive).
In the case of `CCOC(=O)C(=O)C(CCC(=O)c1ccc2ccccc2c1O)C(=O)OCC` (stereo not drawn), the GI50 (SF-539) is reported as > 100 µM (inactive), the GI50 (HT-29) is reported as > 100 µM (inactive) and the GI50 (COLO 205) is reported as > 100 µM (inactive). The GI50 (M14) was > 100 µM (inactive), the GI50 (SNB-19) was > 100 µM (inactive) and the GI50 (MOLT-4) was > 100 µM (inactive). The GI50 (OVCAR-4) was > 100 µM (inactive), the GI50 (Malme-3M) was > 100 µM (inactive) and the GI50 (DU-145) was > 100 µM (inactive). For the same compound, the GI50 (RPMI-8226) was > 100 µM (inactive), the GI50 (SR) was > 100 µM (inactive) and the GI50 (OVCAR-5) was > 100 µM (inactive). The GI50 (SK-OV-3) was > 100 µM (inactive), the GI50 (LOX IMVI) was > 100 µM (inactive) and the GI50 (UO-31) was > 100 µM (inactive). The GI50 (RXF 393) was > 100 µM (inactive), the GI50 (SNB-75) was > 100 µM (inactive) and the GI50 (Hs-578T) was > 100 µM (inactive). For the same compound, the GI50 (HOP-92) was > 100 µM (inactive), the GI50 (MCF7) was > 100 µM (inactive) and the GI50 (UACC-62) was > 100 µM (inactive). For the same compound, the GI50 (MDA-N) was > 100 µM (inactive), the GI50 (NCI/ADR-RES) was > 100 µM (inactive) and the GI50 (SK-MEL-28) was > 100 µM (inactive). For the same compound, the GI50 (OVCAR-3) was > 100 µM (inactive), the GI50 (KM12) was > 100 µM (inactive) and the GI50 (786-0) was > 100 µM (inactive). The GI50 (NCI-H522) was > 100 µM (inactive), the GI50 (CCRF-CEM) was > 100 µM (inactive) and the GI50 (SN12C) was > 100 µM (inactive). For the same compound, the GI50 (SF-295) was > 100 µM (inactive), the GI50 (HCT-15) was over 100 µM and the GI50 (K562) was > 100 µM (inactive). The GI50 (PC-3) was > 100 µM (inactive), the GI50 (SK-MEL-5) was > 100 µM (inactive) and the GI50 (MDA-MB-435) was > 100 µM (inactive). For the same compound, the GI50 (SK-MEL-2) was > 100 µM (inactive), the GI50 (NCI-H460) was > 100 µM (inactive) and the GI50 (SF-268) was > 100 µM (inactive). For the same compound, the GI50 (CAKI-1) was > 100 µM (inactive), the GI50 (UACC-257) was > 100 µM (inactive) and the GI50 (EKVX) was > 100 µM (inactive). The GI50 (IGROV-1) was > 100 µM (inactive), the GI50 (HCC 2998) was > 100 µM (inactive) and the GI50 (NCI-H226) was 38.5 µM (inactive). The GI50 (U-251) was > 100 µM (inactive), the GI50 (NCI-H23) was > 100 µM (inactive) and the GI50 (A498) was > 100 µM (inactive). For the same compound, the GI50 (MDA-MB-231) was > 100 µM (inactive), the GI50 (OVCAR-8) was > 100 µM (inactive) and the GI50 (HCT-116) was > 100 µM (inactive). The GI50 (SW-620) was > 100 µM (inactive), the GI50 (HL-60) was > 100 µM (inactive) and the GI50 (A549) was > 100 µM (inactive). For the same compound, the GI50 (ACHN) was > 100 µM (inactive), the GI50 (T47D) was > 100 µM (inactive) and the GI50 (BT-549) was > 100 µM (inactive).

Source: ChEMBL document CHEMBL1201862, “PubChem BioAssay data set” (2004)
